According to ChEMBL document CHEMBL3751781, “Three-dimensional QSAR analysis and design of new 1,2,4-oxadiazole antibacterials” (2016):
≈ marks a conversion by molar mass, not a printed value.

System: Staphylococcus aureus
Experiment: Antibacterial against Staphylococcus aureus
Type: functional
Conditions: for MIC: Staphylococcus aureus

Compound	-logMIC	MIC [µg/mL]
O=c1[nH]c(-c2ccc(Oc3ccccc3)cc2)no1	0.686	128 (≈ 503 µM)
Oc1ccc(-c2nc(-c3ccc(Oc4ccccc4)cc3)no2)cc1	5.8	–
Oc1ccc(-c2nc(-c3ccc(Oc4ccc(C(F)(F)F)cc4)cc3)no2)cc1	5.987	–
Nc1ccc(-c2nc(-c3ccc(Oc4ccccc4)cc3)no2)cc1	4.411	–
Nc1ccc(-c2nc(-c3ccc(Oc4ccc(C(F)(F)F)cc4)cc3)no2)cc1	5.985	–
FC(F)(F)c1ccc(Oc2ccc(-c3noc(-c4n[nH]cc4Cl)n3)cc2)cc1	6.008	–
Brc1c[nH]nc1-c1nc(-c2ccc(Oc3ccccc3)cc2)no1	5.949	–
FC(F)(F)c1ccc(Oc2ccc(-c3noc(-c4n[nH]cc4Br)n3)cc2)cc1	6.11	–
Ic1c[nH]nc1-c1nc(-c2ccc(Oc3ccccc3)cc2)no1	6.064	–
FC(F)(F)c1ccc(Oc2ccc(-c3noc(-c4n[nH]cc4I)n3)cc2)cc1	5.518	–
O=[N+]([O-])c1c[nH]nc1-c1nc(-c2ccc(Oc3ccccc3)cc2)no1	5.163	–
O=[N+]([O-])c1c[nH]nc1-c1nc(-c2ccc(Oc3ccc(C(F)(F)F)cc3)cc2)no1	5.341	–
O=[N+]([O-])c1c[nH]nc1-c1nc(-c2ccc(Oc3ccc(F)cc3)cc2)no1	5.906	–
C#Cc1c[nH]nc1-c1nc(-c2ccc(Oc3ccc(C(F)(F)F)cc3)cc2)no1	7.369	0.25 (≈ 0.631 µM)
N#Cc1c[nH]nc1-c1nc(-c2ccc(Oc3ccc(C(F)(F)F)cc3)cc2)no1	5.292	–
OCC#Cc1c[nH]nc1-c1nc(-c2ccc(Oc3ccc(C(F)(F)F)cc3)cc2)no1	4.669	–
Oc1ccc(-c2nc(-c3ccc(Oc4ccccc4)cc3)no2)cc1F	4.467	–
Oc1ccc(-c2nc(-c3ccc(Oc4ccc(C(F)(F)F)cc4)cc3)no2)cc1F	5.338	–
Oc1ccc(-c2nc(-c3ccc(Oc4ccc(F)cc4)cc3)no2)cc1F	5.21	–
Oc1c(F)cc(-c2nc(-c3ccc(Oc4ccc(F)cc4)cc3)no2)cc1F	3.872	–
Nc1ccc(-c2nc(-c3ccc(Oc4ccc(C(F)(F)F)cc4)cc3)no2)cc1F	5.336	–

Compound	-logMIC	MIC [µg/mL]
Nc1c(F)cc(-c2nc(-c3ccc(Oc4ccccc4)cc3)no2)cc1F	3.821	–
Nc1c(F)cc(-c2nc(-c3ccc(Oc4ccc(C(F)(F)F)cc4)cc3)no2)cc1F	5.378	2 (≈ 4.62 µM)
c1ccc(Oc2ccc(-c3noc(-c4ccc5[nH]ccc5c4)n3)cc2)cc1	5.174	4 (≈ 11.3 µM)
FC(F)(F)c1ccc(Oc2ccc(-c3noc(-c4ccc5[nH]ccc5c4)n3)cc2)cc1	4.657	–
Fc1ccc(Oc2ccc(-c3noc(-c4ccc5[nH]ccc5c4)n3)cc2)cc1	5.224	2 (≈ 5.39 µM)
O=[N+]([O-])c1cc(-c2nc(-c3ccc(Oc4ccc(C(F)(F)F)cc4)cc3)no2)cnc1O	4.017	–
O=[N+]([O-])c1cc(-c2nc(-c3ccc(Oc4ccc(F)cc4)cc3)no2)cnc1O	3.898	–
Fc1ccc(-c2nc(-c3ccc(Oc4ccccc4)cc3)no2)cc1	0.954	128 (≈ 385 µM)
O=[N+]([O-])c1ccc(-c2nc(-c3ccc(Oc4ccccc4)cc3)no2)cc1	1.032	128 (≈ 356 µM)
O=P(O)(O)c1ccc(-c2nc(-c3ccc(Oc4ccc(F)cc4)cc3)no2)cc1	1.17	128 (≈ 310 µM)
CS(=O)(=O)Nc1ccc(-c2nc(-c3ccc(Oc4ccc(C(F)(F)F)cc4)cc3)no2)cc1	1.312	128 (≈ 269 µM)
NS(=O)(=O)c1ccc(-c2nc(-c3ccc(Oc4ccc(C(F)(F)F)cc4)cc3)no2)cc1	1.282	128 (≈ 277 µM)
NS(=O)(=O)c1ccc(-c2nc(-c3ccc(Oc4ccc(F)cc4)cc3)no2)cc1	1.168	128 (≈ 311 µM)
O=C(O)c1ccc(-c2nc(-c3ccc(Oc4ccc(F)cc4)cc3)no2)cc1	1.079	128 (≈ 340 µM)
COC(=O)c1ccc(-c2nc(-c3ccc(Oc4ccc(F)cc4)cc3)no2)cc1	1.115	128 (≈ 328 µM)
Oc1ccccc1-c1nc(-c2ccc(Oc3ccccc3)cc2)no1	0.948	128 (≈ 387 µM)
COc1ccc(-c2nc(-c3ccc(Oc4ccccc4)cc3)no2)cc1[N+](=O)[O-]	1.113	128 (≈ 329 µM)
COc1ccc(-c2nc(-c3ccc(Oc4ccc(F)cc4)cc3)no2)cc1[N+](=O)[O-]	1.158	128 (≈ 314 µM)
COc1ccc(-c2nc(-c3ccc(Oc4ccc(F)cc4)cc3)no2)cc1OC	1.12	128 (≈ 326 µM)
FC(F)(F)c1ccc(Oc2ccc(-c3noc(-c4cc[nH]n4)n3)cc2)cc1	0.923	128 (≈ 344 µM)
Nc1c[nH]nc1-c1nc(-c2ccc(Oc3ccc(F)cc3)cc2)no1	3.048	–

Compound	-logMIC	MIC [µg/mL]
CCCCNc1c[nH]nc1-c1nc(-c2ccc(Oc3ccc(C(F)(F)F)cc3)cc2)no1	1.243	128 (≈ 289 µM)
FC(F)(F)c1ccc(Oc2ccc(-c3noc(-c4n[nH]cc4NC4CCCCC4)n3)cc2)cc1	1.3	128 (≈ 273 µM)
FC(F)(F)c1ccc(Oc2ccc(-c3noc(-c4n[nH]cc4NC4CCCC4)n3)cc2)cc1	1.269	128 (≈ 281 µM)
O=C(Nc1c[nH]nc1-c1nc(-c2ccc(Oc3ccc(C(F)(F)F)cc3)cc2)no1)c1ccccc1	1.345	128 (≈ 260 µM)
O=C(Nc1c[nH]nc1-c1nc(-c2ccc(Oc3ccc(C(F)(F)F)cc3)cc2)no1)c1ccccn1	1.347	128 (≈ 260 µM)
CCOP(=O)(OCC)c1c[nH]nc1-c1nc(-c2ccc(Oc3ccc(C(F)(F)F)cc3)cc2)no1	1.379	128 (≈ 252 µM)
c1ccc(Oc2ccc(-c3noc(-c4ccncc4)n3)cc2)cc1	0.902	128 (≈ 406 µM)
Nc1cc(-c2nc(-c3ccc(Oc4ccc(F)cc4)cc3)no2)cnc1O	1.046	128 (≈ 351 µM)
Fc1ccc(Oc2ccc(-c3noc(-c4c[nH]c5ncccc45)n3)cc2)cc1	1.068	128 (≈ 344 µM)
O=[N+]([O-])c1c[nH]c(-c2nc(-c3ccc(Oc4ccc(F)cc4)cc3)no2)c1	1.052	128 (≈ 349 µM)
Nc1c[nH]c(-c2nc(-c3ccc(Oc4ccc(F)cc4)cc3)no2)c1	0.966	128 (≈ 381 µM)
Brc1ccc(-c2nc(-c3ccccc3)no2)cc1	0.856	128 (≈ 425 µM)
Oc1ccc(-c2nc(-c3ccc(Oc4ccccc4)c(F)c3)no2)cc1	3.774	8 (≈ 23 µM)
O=C(c1cccc(Oc2ccc(-c3noc(-c4ccc(O)cc4)n3)cc2)c1)C(F)(F)F	4.669	4 (≈ 9.38 µM)
O=[N+]([O-])c1c(F)cc(-c2nc(-c3ccc(Oc4ccccc4)cc3)no2)cc1F	1.128	128 (≈ 324 µM)
O=[N+]([O-])c1ccccc1Oc1ccc(-c2noc(-c3ccc(O)cc3)n2)cc1	4.542	4 (≈ 10.7 µM)
Clc1c[nH]nc1-c1nc(-c2ccc(Oc3ccc(I)cc3)cc2)no1	6.141	1 (≈ 2.15 µM)
Oc1ccc(-c2nc(-c3ccc(Oc4ccc(Br)cc4)cc3)no2)cc1	5.321	2 (≈ 4.89 µM)
Fc1ccc(Oc2ccc(-c3noc(-c4n[nH]cc4Cl)n3)cc2)cc1F	6.619	0.5 (≈ 1.33 µM)
O=[N+]([O-])c1c[nH]nc1-c1nc(-c2ccc(Oc3ccc(I)cc3)cc2)no1	4.084	8 (≈ 16.8 µM)
Oc1ccc(-c2nc(-c3ccc(Oc4cccc(CBr)c4)cc3)no2)cc1	4.662	4 (≈ 9.45 µM)

Compound	-logMIC	MIC [µg/mL]
Nc1c[nH]nc1-c1nc(-c2ccc(Oc3ccc(F)c(F)c3)cc2)no1	3.794	8 (≈ 22.5 µM)
O=[N+]([O-])c1ccc(-c2nc(-c3ccc(Oc4ccccc4)cc3)no2)cc1F	1.081	128 (≈ 339 µM)
O=[N+]([O-])c1c(F)cc(-c2nc(-c3ccc(Oc4ccc(C(F)(F)F)cc4)cc3)no2)cc1F	1.286	128 (≈ 276 µM)
Oc1ccc(-c2nc(-c3ccc(F)cc3)no2)cc1	0.694	128 (≈ 500 µM)
[N-]=[N+]=Nc1ccc(Oc2ccc(-c3noc(-c4ccc(O)cc4)n3)cc2)cc1	5.224	2 (≈ 5.39 µM)
Oc1ccc(-c2nc(-c3ccc(Oc4cccnc4)cc3)no2)cc1	0.951	128 (≈ 386 µM)
Oc1ccc(-c2nc(-c3ccc(Oc4ccc(CBr)cc4)cc3)no2)cc1	1.196	128 (≈ 302 µM)
[N-]=[N+]=Nc1cc(-c2noc(-c3ccc(O)cc3)n2)ccc1Oc1ccccc1	5.224	2 (≈ 5.39 µM)
O=[N+]([O-])c1ccc(-c2nc(-c3ccc(Oc4ccc(C(F)(F)F)cc4)cc3)no2)cc1F	1.247	128 (≈ 287 µM)
Oc1ccc(-c2noc(-c3ccc(O)cc3)n2)cc1	0.686	128 (≈ 503 µM)
COc1ccc(Oc2ccc(-c3noc(-c4ccc(O)cc4)n3)cc2)cc1	5.194	2 (≈ 5.55 µM)
CC(=O)N(C(C)=O)c1c[nH]nc1-c1nc(-c2ccc(Oc3ccc(C(F)(F)F)cc3)cc2)no1	1.304	128 (≈ 272 µM)
CCC(C)Nc1c[nH]nc1-c1nc(-c2ccc(Oc3ccc(C(F)(F)F)cc3)cc2)no1 (centres undefined)	1.243	128 (≈ 289 µM)
Oc1ccc(-c2nc(-c3ccc(Oc4cccc(Br)c4)cc3)no2)cc1	4.628	4 (≈ 9.77 µM)
O=[N+]([O-])c1cc(-c2noc(-c3ccc(O)cc3)n2)ccc1Oc1ccccc1	3.848	8 (≈ 21.3 µM)
Fc1ccc(Oc2ccc(-c3noc(-c4n[nH]cc4Cl)n3)cc2)cc1Cl	5.276	2 (≈ 5.11 µM)
O=P(O)(O)Oc1ccc(Oc2ccc(-c3noc(-c4ccc(F)cc4)n3)cc2)cc1	1.208	128 (≈ 299 µM)
O=C1COc2cc(-c3nc(-c4ccc(Oc5ccccc5)cc4)no3)ccc2N1	1.102	128 (≈ 332 µM)
Fc1ccc(Oc2ccc(-c3noc(-c4n[nH]cc4Br)n3)cc2)cc1F	6.038	1 (≈ 2.39 µM)
O=C(O)c1ccc(Oc2ccc(-c3noc(-c4ccc(O)cc4)n3)cc2)cc1	1.766	64 (≈ 171 µM)
Oc1ccc(-c2nc(-c3ccc(Oc4ccncc4)cc3)no2)cc1	0.951	128 (≈ 386 µM)
